Values quoted from earlier work in patent publication US11065266B2, “Method of treating melanoma using an inhibitor of an atypical protein kinase C” (UNIVERSITY OF SOUTH FLORIDA, priority 2016, dated 2021).

Biological target: T1, PKC-ι (Homo sapiens, UniProt P41743)
T1 sequence (P41743 1-596): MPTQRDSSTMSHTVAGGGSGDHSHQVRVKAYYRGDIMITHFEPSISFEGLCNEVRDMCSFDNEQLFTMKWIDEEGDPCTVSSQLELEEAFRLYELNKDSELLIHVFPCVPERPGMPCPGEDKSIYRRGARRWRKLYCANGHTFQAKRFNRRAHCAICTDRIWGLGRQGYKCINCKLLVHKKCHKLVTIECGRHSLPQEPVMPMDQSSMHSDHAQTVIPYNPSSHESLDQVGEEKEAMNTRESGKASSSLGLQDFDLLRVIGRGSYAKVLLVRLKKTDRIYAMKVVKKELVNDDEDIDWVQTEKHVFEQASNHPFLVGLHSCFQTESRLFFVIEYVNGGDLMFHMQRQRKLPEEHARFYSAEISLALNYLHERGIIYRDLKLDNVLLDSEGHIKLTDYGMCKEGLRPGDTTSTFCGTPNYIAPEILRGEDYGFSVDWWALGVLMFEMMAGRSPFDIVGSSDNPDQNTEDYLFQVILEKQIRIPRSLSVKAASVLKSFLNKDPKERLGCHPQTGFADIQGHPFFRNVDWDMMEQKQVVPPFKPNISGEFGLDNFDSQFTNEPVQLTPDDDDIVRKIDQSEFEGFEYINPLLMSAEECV
Conditions: cited from earlier work

SMILES | binding to PKC-ι
O=C([O-])CC([S-])C(=O)[O-].[Au+].[Na+].[Na+] (centres unmarked) [Sodium aurothiomalate] | low micromolar range
OC[C@H]1O[C@H]([S-])[C@H](O)[C@@H](O)[C@@H]1O.[Au+] [aurothioglucose] | low micromolar range
